According to patent publication US20210353626A1, “BETA-ADRENERGIC RECEPTOR ALLOSTERIC MODULATORS” (THE REGENTS OF THE UNIVERSITY OF CALIFORNIA, priority 2018, published 2021):

Legend:
β2AR [1] = target: T1, β2AR (Homo sapiens, UniProt P07550); experiment: β-arrestin-2 recruitment assay (PathHunter enzyme fragment complementation), norepinephrine-stimulated; type: cell-based; settings: for negative allosteric effect on norepinephrine-stimulated β-arrestin 2 recruitment (in words): analogs tested at 10 μM and 30 μM compared to norepinephrine alone (FIG. 9); for inhibition at 30 µM: arrestin recruitment stimulated by norepinephrine after preincubation with 30 μM of the test compound; for inhibition at 30 µM / inhibition at 10 µM: read-out: attenuation of Emax (maximum efficacy of norepinephrine); for inhibition at 10 µM: arrestin recruitment stimulated by norepinephrine, attenuating effect at 10 μM of the test compound
T1 construct: host or cells: HEK293 cells stably expressing (EA)-β-arrestin-2
T1 sequence (P07550 whole entry, the tested form may be a part): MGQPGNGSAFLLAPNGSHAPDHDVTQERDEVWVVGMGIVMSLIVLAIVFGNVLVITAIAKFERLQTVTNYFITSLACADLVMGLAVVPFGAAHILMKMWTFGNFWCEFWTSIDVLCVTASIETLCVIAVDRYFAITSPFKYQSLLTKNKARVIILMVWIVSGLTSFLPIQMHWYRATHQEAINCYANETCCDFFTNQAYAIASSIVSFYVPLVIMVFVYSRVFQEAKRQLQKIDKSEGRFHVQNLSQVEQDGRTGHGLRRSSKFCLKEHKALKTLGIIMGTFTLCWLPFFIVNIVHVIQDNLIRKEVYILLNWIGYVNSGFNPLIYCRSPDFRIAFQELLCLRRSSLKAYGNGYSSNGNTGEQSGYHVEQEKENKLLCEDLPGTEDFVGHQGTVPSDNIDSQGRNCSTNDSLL
Protocol: (§1) β-Arrestin-2 Recruitment Assay. Determination of β-arrestin-2 recruitment was performed applying the PathHunter assay (DiscoverX, Birmingham, U.K.) which is based on fragment complementation of β-galactosidase in HEK293 cells stably expressing (EA)-β-arrestin-2 and being transiently transfected with a receptor tagged to the PK fragment. In general, cells were transfected employing Mirus TransIT-293 (peqlab, Erlangen, Germany) and incubated in DMEM/F12 medium (Life Technologies, Darmstadt, Germany) at 37° C. and 5% of CO2. After 24 hrs cells were detached with Versene (Life Technologies) and transferred into 384-well plates (white plate, transparent bottom, Greiner Bio-One, Frickenhausen, Germany) at a density of 5000 cells/well using the medium CP4 Reagent (DiscoverX). After further 24 hrs of incubation test compounds dissolved in PBS were added to the cells at a final volume of 25 μL and incubated at 37° C. for a distinct time which was optimized for each receptor (details are summarized in the supporting information). Determination of β-arrestin-2 recruitment was started by adding detection mix, incubation at room temperature for 60 min and measuring chemoluminescence with a Clariostar plate reader (BMG, Ortenberg, Germany). For measuring allosteric effects the modulator was preincubated with the cells at a distinct concentration for 30 min followed by the addition of reference agonist. Data analysis of functional experiments were performed by normalizing the raw data relative to basal activity (0%) and the maximum effect of the reference agonist (100%). Normalized curves from three to seven individual experiments each done as duplicate were analyzed by non-linear regression applying the algorithms in Prism 6.0 (GraphPad, San Diego, Calif.) to get dose-response curves representing average EC50 and Emax value.
β-Arrestin-2 Recruitment Assay. β-Arrestin-2 recruitment was performed applying the fragment complementation assay PathHunter (DiscoverX) with HEK293 cells stably expressing (EA)-β-arrestin-2. The appropriate receptor was transiently transfected when using a specific pCMV vectors with the PK-tag located at different distances downstream of the C-terminus of the inserted receptor (PK1, PK2 and PK-ARMS2, purchased from DiscoverX, Birmingham, UK). ADRB2-PK encoding the human β2AR was purchased from DiscoverX, while all other vectors with related GPCRs were engineered by inserting the DNA of the appropriate receptor in frame into the different PK constructs further excluding the stop codon. Mutants of the β2AR were done applying polymerase chain reaction with appropriate primers.

[2] = system: β2AR E122^3.41 mutants (E122L, E122Q, E122R); experiment: Radioligand binding assay with [3H]DHAP, E122 mutants; parameters: species or system human; settings: all of the mutants, relative to wild type
Protocol: Membranes prepared from Sf9 cells infected with baculoviruses expressing β2AR (wt) or E122 mutants in the absence or presence of co-expressed Gs heterotrimer were assessed by radioligand binding with [^3H]DHAP. […] Ki's were determined using Graphpad (Prism, San Diego) using the Kd of [^3H]DHAP specific for β2AR (wt) and each mutant, according to the Cheng-Prusoff equation. Values for high affinity agonist site (Khigh) and low affinity site (Klow) from membranes prepared from β2AR (wt) or mutants co-infected with Gs heterotrimer were determined by non-linear regression fitting (2-site) using Kd values of [^3H]DHAP, as above (Graphpad, San Diego).
Radioligand binding assay. […] Samples were taken at varying time points, filtered and washed as described below to remove free [^3H]formoterol. For [^3H]DHAP saturation isotherms of β2AR and mutants, membranes were incubated with varying concentrations of [^3H]DHAP and filtered as described below. Samples were subject to rapid filtration through GF/B membranes and rinsed with ice cold binding buffer to remove free [^3H]probe. Filter plates were dried before adding Microscint 0 and counting bound [^3H]probe using a Packard TopCount. All data were analyzed using Graphpad (Prism, San Diego Calif.).

α1AAR = target: T2, α1AAR (Homo sapiens, UniProt P35348); experiment: β-arrestin-2 recruitment assay, subtype selectivity; type: cell-based
T2 construct: expressed in transfected cells; host or cells: HEK293 cells stably expressing (EA)-β-arrestin-2
T2 sequence (P35348 1-466): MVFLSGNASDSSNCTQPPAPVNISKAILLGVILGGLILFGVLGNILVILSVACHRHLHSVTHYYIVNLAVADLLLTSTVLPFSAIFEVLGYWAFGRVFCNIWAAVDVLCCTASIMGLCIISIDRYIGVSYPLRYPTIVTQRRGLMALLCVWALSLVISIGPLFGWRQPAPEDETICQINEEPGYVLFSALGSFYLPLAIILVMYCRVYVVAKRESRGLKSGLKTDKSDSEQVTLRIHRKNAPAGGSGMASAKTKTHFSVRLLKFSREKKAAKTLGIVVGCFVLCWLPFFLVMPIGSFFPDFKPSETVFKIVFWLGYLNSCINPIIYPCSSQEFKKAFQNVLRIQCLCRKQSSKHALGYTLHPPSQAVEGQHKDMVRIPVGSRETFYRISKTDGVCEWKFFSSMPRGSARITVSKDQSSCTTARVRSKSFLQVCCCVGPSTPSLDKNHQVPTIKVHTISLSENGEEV
Protocol: as §1
(§2) β-Arrestin-2 Recruitment Assay. β-Arrestin-2 recruitment was performed applying the fragment complementation assay PathHunter (DiscoverX) with HEK293 cells stably expressing (EA)-β-arrestin-2. […]

β1AR = target: T3, β1AR (Mus musculus, UniProt P34971); experiment: as above; type: cell-based
T3 construct: expressed in transfected cells; host or cells: HEK293 cells stably expressing (EA)-β-arrestin-2
T3 sequence (P34971 whole entry): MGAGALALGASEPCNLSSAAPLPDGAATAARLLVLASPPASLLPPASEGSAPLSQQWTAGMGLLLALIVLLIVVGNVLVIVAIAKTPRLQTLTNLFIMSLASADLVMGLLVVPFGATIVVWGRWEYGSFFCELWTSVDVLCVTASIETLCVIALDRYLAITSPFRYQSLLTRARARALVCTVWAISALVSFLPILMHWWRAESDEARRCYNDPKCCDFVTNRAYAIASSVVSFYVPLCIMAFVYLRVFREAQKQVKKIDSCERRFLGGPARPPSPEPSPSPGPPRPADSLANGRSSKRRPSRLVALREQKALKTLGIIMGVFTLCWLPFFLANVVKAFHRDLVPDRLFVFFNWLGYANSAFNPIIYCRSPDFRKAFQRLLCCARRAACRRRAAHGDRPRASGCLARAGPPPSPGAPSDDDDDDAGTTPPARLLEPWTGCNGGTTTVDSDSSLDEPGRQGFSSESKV
Protocol: as §1, §2

[3] = system: other Family A GPCRs (α2AAR, 5-HT1AR, M2AChR, D2longDR, PAR2, NTS1R, μOR, κOR, δOR); experiment: as above; type: cell-based
Protocol: as §1, §2

β2AR [4] = target: T1, β2AR; experiment: cAMP accumulation assay (FRET-Epac sensor); type: cell-based
Protocol: cAMP accumulation assays. Intact cell cAMP accumulation was measured using the FRET-epac sensor in stable HEK293-Epac cells endogenously expressing β2AR or in CHO cells co-transfected with Epac and β2AR or the mutants. Cells were harvested with lifting buffer (20 mM HEPES, pH 7.4, 150 mM NaCl and 0.68 mM EDTA), centrifuged and resuspended in HBSS-HEPES (Hank's Balanced Salt Solution plus 20 mM HEPES, pH 7.4) containing 0-150 μM modulator or vehicle (for a final assay concentration of 0-100 μM). This cell suspension (100 μL) was pipetted into the wells of a 96 well plate (black with clear bottom). After 20 min in the dark at 37° C., 50 μL of HBSS-HEPES buffer at 37° C. containing 1B MX (1 mM final), ascorbic acid (1 mM final), and norepinephrine or epinephrine (0-100 μM final) was added. The CFP/YFP ratio of the Epac-cAMP FRET sensor was immediately measured for 15 min using wavelengths of 435 nm for excitation with 485 nm and 530 nm for emission using a SpectraMax M5 (Molecular Devices).

In the case of `Nc1nc(Nc2ccccc2)nc2cccc(Br)c12` [AS094, 5-Bromo-N^2-phenylquinazoline-2,4-diamine], the “negative allosteric effect on norepinephrine-stimulated β-arrestin 2 recruitment (in words)” value (“negative allosteric effect” for short) (β2AR [1]) is reported as “reduced allosteric modulation” and the inhibition at 30 µM (β2AR [1]) is reported as 31 to 70%.
`Nc1nc(Nc2ccccc2)nc2ccc(Cl)cc12` [DD282, 6-Chloro-N^2-phenylquinazoline-2,4-diamine] was tested, and the “negative allosteric effect” value (β2AR [1]) was “activity comparable to Br” and the inhibition at 30 µM (β2AR [1]) was 71 to 100%.
With `CNC(=O)c1ccc(Nc2nc(N)c3ccccc3n2)cc1` [AS198, 4-((4-Aminoquinazolin-2-yl)amino)-N-methylbenzamide] the inhibition at 30 µM (β2AR [1]) was < 30%.
For `Nc1nc(Nc2cccc(CCC(=O)OCC(O)CO)c2)nc2ccc(Br)cc12` (stereo not drawn) [DD294, 2,3-dihydroxypropyl-(3-((4-amino-6-bromoquinazolin-2-yl)amino)phenyl)propanoate], the inhibition at 30 µM (β2AR [1]) was < 30%.
`Nc1nc(Nc2ccccc2)nc2ccc(Br)cc12` [AS408, 6-Bromo-N^2-phenylquinazoline-2,4-diamine] was tested, and the “effect of AS408 on agonist binding affinity at E122 mutants” value [2] was “reduced relative to the wild-type receptor”, the “allosteric activity at α1AR” value (α1AAR) was “weak NAM” and the “potency at β1AR relative to β2AR” value (β1AR) was “small reduction in the potency”. For the same molecule, the “allosteric activity at the other GPCRs tested” value [3] was “no allosteric activity”.
`Nc1nc(Nc2ccccc2)nc2ccc(F)cc12` [DD284, 6-Fluoro-N^2-phenylquinazoline-2,4-diamine] was tested, and the “negative allosteric effect” value (β2AR [1]) was “less potent” and the inhibition at 30 µM (β2AR [1]) was < 30%.
For `Nc1nc(Nc2ccccc2)nc2ccc(C(F)(F)F)cc12` [DD293, 6-Trifluoromethyl-N^2-phenylquinazoline-2,4-diamine], the “negative allosteric effect” value (β2AR [1]) was “activity comparable to Br” and the inhibition at 30 µM (β2AR [1]) was 71 to 100%.
`Nc1nc(Nc2ccccc2)nc2ccc(-c3ccccc3)cc12` [ST240, N^2,6-Diphenylquinazoline-2,4-diamine] was tested, and the “negative allosteric effect” value (β2AR [1]) was “further disruption of the negative allosteric effect” and the inhibition at 30 µM (β2AR [1]) was 31 to 70%.
`Nc1nc(Nc2ccccc2)nc2cccc(Cl)c12` [AS098, 5-Chloro-N^2-phenylquinazoline-2,4-diamine] showed an inhibition at 30 µM (β2AR [1]) of 31 to 70%.
In the case of `COC(=O)c1ccc(Nc2nc(N)c3c(Cl)cccc3n2)cc1` [AS228, Methyl 4-((4-amino-5-chloroquinazolin-2-yl)amino)benzoate], the inhibition at 30 µM (β2AR [1]) is reported as < 30%.
`COC(=O)c1ccc(Nc2nc(N)c3c(F)cccc3n2)c(O)c1` [AS202, Methyl 4-((4-amino-5-fluoroquinazolin-2-yl)amino)-3-hydroxybenzoate] was tested, and the inhibition at 30 µM (β2AR [1]) was < 30%.
With `Nc1nc(Nc2ccc(S(N)(=O)=O)cc2)nc2ccccc12` [AS197, 4-((4-Aminoquinazolin-2-yl)amino)benzenesulfonamide] the inhibition at 30 µM (β2AR [1]) was < 30%.
For `Nc1nc(Nc2cccc(O)c2)nc2ccccc12` [BRAC1-23], the “negative allosteric effect” value (β2AR [1]) was “Reduction of the allosteric effect”.
For `Nc1nc(Nc2ccc3ccccc3c2)nc2ccc(Br)cc12` [DD290, 6-bromo-N2-(naphthalen-2-yl)quinazoline-2,4-diamine], the inhibition at 10 µM (β2AR [1]) was < 30%.
In the case of `Brc1ccc2nc(Nc3ccccc3)ncc2c1` [DD288, 6-Bromo-/V-phenylquinazolin-2-amine], the “negative allosteric effect” value (β2AR [1]) is reported as “attenuated negative allosteric effect” and the inhibition at 30 µM (β2AR [1]) is reported as 31 to 70%.
In the case of `Nc1nc(Nc2ccccc2)nc2ccc(I)cc12` [ST239, 6-Iodo-N^2-phenylquinazoline-2,4-diamine], the “negative allosteric effect” value (β2AR [1]) is reported as “activity comparable to Br” and the inhibition at 30 µM (β2AR [1]) is reported as 71 to 100%.
In the case of `Nc1nc(Nc2ccccc2CO)nc2ccc(Br)cc12` [DD283, 6-Bromo-N^2-(2-hydroxymethyl)phenylquinazoline-2,4-diamine], the inhibition at 30 µM (β2AR [1]) is reported as < 30%.
For `Nc1nc(Nc2ccccc2)nc2c(Br)cccc12` [AS241, 8-Bromo-N^2-phenylquinazoline-2,4-diamine], the “negative allosteric effect” value (β2AR [1]) was “reduced allosteric modulation” and the inhibition at 30 µM (β2AR [1]) was 31 to 70%.
In the case of `Nc1nc(Nc2ccccc2)nc2ccccc12` [BRAC1], the “negative allosteric effect” value (β2AR [1]) is reported as “weak, negative allosteric regulation” and the “negative allosteric regulation of cAMP accumulation (in words)” value (β2AR [4]) is reported as “weak, negative allosteric regulation”.
In the case of `Nc1nc(Nc2ccccc2O)nc2cccc(Cl)c12` [JT12, 2-((4-Amino-5-chloroquinazolin-2-yl)amino)phenol], the inhibition at 30 µM (β2AR [1]) is reported as < 30%.
With `Nc1nc(Nc2ccccc2)nc2cc(Br)ccc12` [AS436, 7-Bromo-N^2-phenylquinazoline-2,4-diamine] the “negative allosteric effect” value (β2AR [1]) was “reduced allosteric modulation” and the inhibition at 30 µM (β2AR [1]) was 31 to 70%.
For `CC(C)c1ccc2nc(Nc3ccccc3)nc(N)c2c1` [ST238, 6-Isopropyl-N^2-phenylquinazoline-2,4-diamine], the inhibition at 30 µM (β2AR [1]) was 31 to 70%.
For `CCCNc1nc(N)c2ccccc2n1` [BRAC1-5], the “negative allosteric effect” value (β2AR [1]) was “reduces the negative allosteric effect”.
Molecule `Nc1nc(Nc2ccccc2)nc2c(Cl)cccc12` [AS328, 8-Chloro-N^2-phenylquinazoline-2,4-diamine] has an inhibition at 30 µM (β2AR [1]) of 31 to 70%.
In the case of `COC(=O)c1ccc(Nc2nc(N)c3ccccc3n2)c(O)c1` [JT11, Methyl 4-((4-aminoquinazolin-2-yl)amino)-3-hydroxybenzoate], the inhibition at 10 µM (β2AR [1]) is reported as < 30%.
In the case of `Nc1nc(Nc2cccc(CCC(=O)O)c2)nc2ccc(Br)cc12` [DD291, 3-(3-((4-amino-6-bromoquinazolin-2-yl)amino)phenyl)propanoic acid], the inhibition at 30 µM (β2AR [1]) is reported as < 30%.
